Five compounds from publication PMC9973354 (mBio, 2022) can be followed below.

The subject of assay [1] is PA14 ΔfpvA ΔfpvB pHERD20T-fpvA. The assay can be described thus: Checkerboard assay TS and siderophores, FpvA expressed. Conditions: 10:90 + 2% arabinose. Format: cell-based, Pseudomonas aeruginosa. The source says: (§1) We investigated this hypothesis by treating the ΔfpvA ΔfpvB mutant complemented with fpvA or fpvB with TS and pyoverdine-Fe^3+. If pyoverdine competes with TS for the same binding site in the transporter, a reduction in TS susceptibility would be expected, as competition would decrease entry of the antibiotic into the cell. TS susceptibility decreased >8-fold with increasing concentrations of pyoverdine-Fe^3+ when FpvA was expressed (see Fig. S2A in the supplemental material).
(§2) Supplementary file : FIG S2 Checkerboard assays of the PA14 ΔfpvA ΔfpvB strain complemented with fpvA and fpvB in trans with TS and siderophores. […] Checkerboards of the PA14 ΔfpvA ΔfpvB pHERD20T-fpvB strain with TS and enterobactin (G), ferrioxamine E (H), and arthrobactin (I). Results are averaged from three independent biological replicates. Cells in the assay were grown in 10:90 + 2% arabinose. Download FIG S2, EPS file, 2.2 MB.
Checkerboards (8 rows by 8 columns) were conducted as previously described in a 96-well plate (Nunc) ([13], [14]). TS at 75× the final concentration dissolved in DMSO was added in columns from bottom to top in increasing concentrations. Siderophores at 75× the final concentration dissolved in DSMO were added from in rows from left to right in increasing concentrations. Four columns were used for vehicle controls (DMSO) and sterile controls. […] Plates were sealed to prevent evaporation and incubated at 37°C overnight in a shaking incubator (200 rpm). The next day, the OD600 was determined with a plate reader (Thermo Scientific) and normalized to percent of growth of the vehicle control (DMSO) after subtracting the OD600 from blank media.

A further assay concerns the target T1, FpvB R191A R648C (Pseudomonas aeruginosa, UniProt A0A0H2ZFZ5, R191A/R648C).
T1 sequence (A0A0H2ZFZ5 23-802 R191A/R648C): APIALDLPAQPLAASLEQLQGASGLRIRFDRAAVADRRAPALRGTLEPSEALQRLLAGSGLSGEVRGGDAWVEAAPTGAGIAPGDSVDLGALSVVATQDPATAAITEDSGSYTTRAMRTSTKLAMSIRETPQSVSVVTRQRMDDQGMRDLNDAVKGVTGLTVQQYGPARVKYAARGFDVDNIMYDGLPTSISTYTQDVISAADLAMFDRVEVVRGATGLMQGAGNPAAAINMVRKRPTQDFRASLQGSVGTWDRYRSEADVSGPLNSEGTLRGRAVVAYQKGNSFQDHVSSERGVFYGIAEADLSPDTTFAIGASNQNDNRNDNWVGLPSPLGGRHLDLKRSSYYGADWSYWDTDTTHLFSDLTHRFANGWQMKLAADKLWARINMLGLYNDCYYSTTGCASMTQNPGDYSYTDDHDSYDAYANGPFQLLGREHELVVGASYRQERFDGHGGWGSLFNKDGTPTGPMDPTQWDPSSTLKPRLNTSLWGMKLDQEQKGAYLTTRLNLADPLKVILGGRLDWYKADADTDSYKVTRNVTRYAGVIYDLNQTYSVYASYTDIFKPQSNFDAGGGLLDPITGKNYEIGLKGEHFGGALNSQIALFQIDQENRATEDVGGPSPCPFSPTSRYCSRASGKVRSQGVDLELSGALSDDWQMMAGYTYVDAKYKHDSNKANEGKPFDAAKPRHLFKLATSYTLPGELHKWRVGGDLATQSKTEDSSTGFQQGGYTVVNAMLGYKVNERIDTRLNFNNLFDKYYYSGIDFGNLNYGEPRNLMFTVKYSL
The assay can be described thus: Whole-cell fluorescence quenching, FpvB R191A R648C. Format: binding. The method, then:
(§3) Quenching assays with the two xenosiderophores were repeated for the quadruple TBDT mutant expressing WT FpvB, FpvB R191A R648C, or W347V R648C.
(§4) Cells were cultured overnight in LB with carbenicillin (200 μg/mL) at 37°C with shaking at 200 rpm. Cells were subcultured (1:200 dilution) in 10:90 plus 2% arabinose for 4 h without carbenicillin at 37°C with shaking at 200 rpm. Cells were harvested by centrifugation for 5 min and 6,000 × g and resuspended in sterile 1× phosphate-buffered saline (PBS) (pH 7.4); 1× PBS was made from a 10× stock (80 g NaCl, 2 g KCl, 26.8 g Na2 HPO4-7H2O, 2.4 g KH2PO4 in 1 L of deionized H2O) with 10 μM Alexa Fluor 594 C5 maleimide for microscopy or fluorescein-5-maleimide for fluorescence quenching and recovery assays and incubated in the dark at room temperature for 30 min on a shaking incubator at 37°C (200 rpm). Excess dye was quenched with 1 mM dithiothreitol (DTT) (Sigma) to stop the reaction. Cells were washed 3× with PBS. For fluorescence recovery assays, cells were incubated with 1× PBS plus 0.4% glucose at 37°C with shaking at 200 rpm. Glucose was prepared as a 20% stock (wt/vol) in 1× PBS and filter sterilized. Cells were spun down and washed 3× with 1× PBS and resuspended in 1× PBS for quenching assays and 1× PBS plus 0.4% glucose for fluorescence recovery assays.
(§5) For fluorescence quenching and recovery assays, cells were diluted to an OD600 of 0.1 for both types of assays, and 148 μL was added into wells of a 96-well black plate (Corning). Fluorescence was recorded for 5 min at 1-min intervals at 37°C (BioTek Neo; excitation, 494 nm; emission, 520 nm). After 5 min, 2 μL of each serial dilution for ferrioxamine-Fe^3+, ferrichrome-Fe^3+, and pyoverdine-Fe^3+ or DMSO for vehicle controls was added to each well. Fluorescence was recorded immediately for quenching assays and for 1 h at 1-min intervals for fluorescence recovery assays. Background fluorescence was subtracted from all fluorescence readings and 1-F/F0 was used to calculate the degree of quenching, where F0 is the initial fluorescence. Kd was calculated using GraphPad Prism using a one-site specific binding model or a two-site model. For fluorescence recovery assays, background was subtracted from all fluorescence readings and F/F0 expressed as a percent of control was plotted versus time.

In assay [2] the target is T2, FpvB R648C (Pseudomonas aeruginosa, UniProt A0A0H2ZFZ5, R648C).
T2 sequence (A0A0H2ZFZ5 23-802 R648C): T1 sequence (A0A0H2ZFZ5 23-802 R191A/R648C)
In words: Whole-cell fluorescence quenching, FpvB R648C in ΔfpvA ΔfpvB. Type of assay: binding.
Text: (§6) To determine the affinity of the siderophores for FpvA and FpvB, we adapted the method from Chakravorty et al. to generate a whole-cell sensor where fluorescence quenching serves as an indicator of ligand interaction ([31]). Siderophore binding triggers conformational changes at the extracellular loops of the TBDT (Fig. 3A). Cys substitutions were introduced at the loops and labeled with a fluorescent maleimide dye. When a ligand binds the transporter, the loops fold inward toward the lumen of the barrel, and changes in the chemical environment surrounding the fluorophore lead to quenching ([31], [32]). Fluorescence recovery occurs once the siderophore is taken up and the loop returns to its original conformation.
Cells were cultured overnight in LB with carbenicillin (200 μg/mL) at 37°C with shaking at 200 rpm. Cells were subcultured (1:200 dilution) in 10:90 plus 2% arabinose for 4 h without carbenicillin at 37°C with shaking at 200 rpm. […] Excess dye was quenched with 1 mM dithiothreitol (DTT) (Sigma) to stop the reaction. Cells were washed 3× with PBS. For fluorescence recovery assays, cells were incubated with 1× PBS plus 0.4% glucose at 37°C with shaking at 200 rpm. Glucose was prepared as a 20% stock (wt/vol) in 1× PBS and filter sterilized. Cells were spun down and washed 3× with 1× PBS and resuspended in 1× PBS for quenching assays and 1× PBS plus 0.4% glucose for fluorescence recovery assays.
as §5

The next assay concerns the target T3, FpvA T660C (Pseudomonas aeruginosa, UniProt P48632, T660C).
T3 construct: expressed in transfected cells; host or cells: P. aeruginosa PA14 ΔfpvA ΔfpvB, plasmid pHERD20T-fpvA T660C, arabinose-induced
In words: Whole-cell fluorescence quenching, FpvA T660C. Format: binding. Conditions: cells expressing FpvA T660C.
Text: as §6
Cells were cultured overnight in LB with carbenicillin (200 μg/mL) at 37°C with shaking at 200 rpm. […] Cells were harvested by centrifugation for 5 min and 6,000 × g and resuspended in sterile 1× phosphate-buffered saline (PBS) (pH 7.4); 1× PBS was made from a 10× stock (80 g NaCl, 2 g KCl, 26.8 g Na2 HPO4-7H2O, 2.4 g KH2PO4 in 1 L of deionized H2O) with 10 μM Alexa Fluor 594 C5 maleimide for microscopy or fluorescein-5-maleimide for fluorescence quenching and recovery assays and incubated in the dark at room temperature for 30 min on a shaking incubator at 37°C (200 rpm). […]

For assay [3], the target named is T2, FpvB R648C. The assay can be described thus: Whole-cell fluorescence quenching, FpvB R648C in quadruple mutant. Type of assay: binding. The procedure: as §3, §4, §5
The target in the next assay is T4, FpvB W347V R648C (Pseudomonas aeruginosa, UniProt A0A0H2ZFZ5, R648C/W347V).
T4 sequence (A0A0H2ZFZ5 23-802 W347V/R648C): T1 sequence (A0A0H2ZFZ5 23-802 R191A/R648C)
In words: Whole-cell fluorescence quenching, FpvB W347V R648C. Type of assay: binding. The procedure: as §3, §4, §5

Assay [4] has as its target T2, FpvB R648C. In words: Fluorescence recovery assay (siderophore uptake by FpvB). Type of assay: cell-based. Conditions: siderophore at 1/2 Kd (1/2 Kd2 for ferrioxamine B), recorded for 1 h. The procedure: Cells were equilibrated for 5 min prior to introduction of the siderophores. Fluorescence was recorded every min for 1 h. Carbonyl cyanide m-chlorophenylhydrazone (CCCP) was used as a control to inhibit fluorescence recovery through dissipation of the proton motive force (PMF) ([2], [3]), which is required for uptake.
as §4, with “Glucose was prepared as a 20% stock (wt/vol) in 1× PBS and filter sterilized.” left out
as §5, with “After 5 min, 2 μL of each serial dilution for ferrioxamine-Fe^3+, ferrichrome-Fe^3+, and pyoverdine-Fe^3+ or DMSO for vehicle controls was added to each well.” left out, “For fluorescence recovery assays, background was subtracted from all fluorescence readings and F/F0 expressed as a percent of control was plotted versus time.” left out

Assay [5] deals with PA14 ΔfpvA ΔfpvB pHERD20T-fpvB. In words: Checkerboard assay TS and siderophores, FpvB expressed. Conditions: 10:90 + 2% arabinose. Format: cell-based, Pseudomonas aeruginosa.
Text: as §1, §2
Checkerboards (8 rows by 8 columns) were conducted as previously described in a 96-well plate (Nunc) ([13], [14]). TS at 75× the final concentration dissolved in DMSO was added in columns from bottom to top in increasing concentrations. […] The next day, the OD600 was determined with a plate reader (Thermo Scientific) and normalized to percent of growth of the vehicle control (DMSO) after subtracting the OD600 from blank media.

[6] abbreviates: FpvB R648C in quadruple mutant, two-site model.

Starred links: 1 amine or outer side, 2 acyl side, 3 side chain; linkers in the order of their positions; H or OH if unused. Positions of bridges follow the written chain, without caps; N, C: chain ends. Non-standard residues stand in square brackets, D forms with d. Residues, ends and D or L forms follow the SMILES beside them. ξ: configuration not given here. X1 = O=C([C@@H]1CCN=C2C(N[*:1])=Cc3cc(O)c(O)cc3N21)[*:2]; ξOrn(N(OH)CHO) = NC(CCCN(O)C=O)C(=O)O; Suc = O=C(CCC(=O)[*:2])[*:1]; ξK = NCCCCC(N)C(=O)O; ξS = NC(CO)C(=O)O Some results are limits rather than exact numbers.

T3 sequence (P48632 44-815 T660C): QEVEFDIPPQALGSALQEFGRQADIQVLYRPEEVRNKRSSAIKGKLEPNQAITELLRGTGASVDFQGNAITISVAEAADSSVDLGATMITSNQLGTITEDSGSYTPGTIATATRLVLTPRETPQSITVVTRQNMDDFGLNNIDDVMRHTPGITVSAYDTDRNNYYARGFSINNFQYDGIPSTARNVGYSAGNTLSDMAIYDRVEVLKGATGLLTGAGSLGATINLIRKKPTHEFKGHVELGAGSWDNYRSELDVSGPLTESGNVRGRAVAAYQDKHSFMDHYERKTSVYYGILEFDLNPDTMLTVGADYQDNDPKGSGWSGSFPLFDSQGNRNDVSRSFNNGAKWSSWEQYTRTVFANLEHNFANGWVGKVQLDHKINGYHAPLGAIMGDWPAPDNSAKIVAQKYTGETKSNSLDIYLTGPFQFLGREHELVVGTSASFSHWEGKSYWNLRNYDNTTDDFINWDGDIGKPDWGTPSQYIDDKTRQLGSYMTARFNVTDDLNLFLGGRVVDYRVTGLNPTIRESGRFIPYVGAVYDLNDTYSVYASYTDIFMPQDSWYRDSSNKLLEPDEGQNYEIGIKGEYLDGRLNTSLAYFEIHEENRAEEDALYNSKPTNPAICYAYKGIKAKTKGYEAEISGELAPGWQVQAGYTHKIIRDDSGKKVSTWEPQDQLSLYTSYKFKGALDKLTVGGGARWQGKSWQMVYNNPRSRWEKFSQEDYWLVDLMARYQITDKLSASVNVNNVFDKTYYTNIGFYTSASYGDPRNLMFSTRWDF

`CC(=O)N(O)CCCCCNC(=O)CC(O)(CC(=O)NCCCCCN(O)C(C)=O)C(=O)O` [arthrobactin]: the “effect of siderophore on TS susceptibility” value (“effect of siderophore” for short) in assay [1] was “None of those siderophores reduced TS susceptibility”.
As for `O=C(N[C@H]1COC(=O)[C@@H](NC(=O)c2cccc(O)c2O)COC(=O)[C@@H](NC(=O)c2cccc(O)c2O)COC1=O)c1cccc(O)c1O` [enterobactin], the “effect of siderophore” value in assay [1] is “None of those siderophores reduced TS susceptibility”.
Regarding `CC(=O)N([O-])CCCCCNC(=O)CCC(=O)N([O-])CCCCCNC(=O)CCC(=O)N([O-])CCCCCN.[Fe+3]` [ferrioxamine B-Fe^3+], the dissociation constant (Kd) at FpvB R191A R648C (FpvB R191A R648C, one-site model) came to 300 ± 43 µg/mL; at FpvB W347V R648C (FpvB W347V R648C, one-site model) it was 490 ± 68 µg/mL. Besides, the Kd1 was 1.0 × 10^2 ± 50 ng/mL at FpvB R648C [2] (FpvB R648C in ΔfpvA ΔfpvB, two-site model, higher-affinity site) and 1.0x10^2 ± 59 ng/mL on FpvB R648C [3] (setting [6]). The Kd2 worked out at 270000 ± 47000 ng/mL at FpvB R648C [2] (FpvB R648C in ΔfpvA ΔfpvB, two-site model, lower-affinity site) and 370000 ± 95000 ng/mL on FpvB R648C [3] (setting [6]). In addition, the fluorescence quenching entry on FpvA T660C is recorded as “No quenching”.
Turning to `NCCCCC(NC(=O)C(CO)NC(=O)[C@@H]1CCN=C2C(NC(=O)CCC(=O)O)=Cc3cc(O)c(O)cc3N21)C(=O)NCC(=O)NC(CCCN(O)C=O)C(=O)NC1CCCCNC(=O)C(CO)NC(=O)C(CCCN(O)C=O)NC1=O.[Fe+3]` (stereo partly shown) [pyoverdine-Fe^3+] (Suc-[X1][ξS][ξK]G[ξOrn(N(OH)CHO)][ξK][ξOrn(N(OH)CHO)][ξS]; lactam 6-C), the fluorescence recovery result at FpvB R648C [4] is on record as “No recovery”. Besides, the “effect of siderophore” value in assay [5] is reported as “did not impact TS susceptibility”. Also, the “Kd for FpvB relative to FpvA” value at FpvB R648C [2] (higher for FpvB) is listed as 200 fold.
As to ferrichrome-Fe^3+, the “increase of Kd by the mutation” value on FpvB R191A R648C (R191A versus FpvB R648C) was 76 fold; on FpvB W347V R648C (W347V versus FpvB R648C) it was > 76 fold. Further, the fluorescence quenching at FpvA T660C is ~ 20%. The compound further had a dissociation constant (Kd) at FpvB R648C [3] (FpvB R648C in ΔfpvA ΔfpvB ΔfiuA ΔfoxA) of 0.0085 ± 0.0008 µg/mL.

The Kd is the constant that tells how readily two partners part at equilibrium. Low readings indicate a tighter complex, high ones a looser complex.
